Data reported in US20220065865A1, “METHODS OF TREATMENT AND DIAGNOSIS OF TUMOURS” (UEA ENTERPRISES LIMITED, priority 2018, published 2022).

Columns and labels:
[1] = test system: chondrosarcoma tumour spheres (SW1353); test: Small molecule treatment of chondrosarcoma tumour spheres, nuclei counted by DAPI staining; assay type: cell-based, human; settings: bone 3D tumour spheres; for cancer cell number in comparison with Control 1: 72 hours, Control 1 = 0.1% DMSO
Method: (§1) SW1353 (chondrosarcoma) cells were cultured in 1:1 DMEM/F-12 Supplement (Thermo Fisher Scientific) containing 10% (volume/volume) fetal bovine serum (Sigma Aldrich). Cells were fed with culture medium every other day and maintained at 37° C. in a […] atmosphere of 5% CO2. Cells were obtained from ATCC and authenticated by STR profiling. Cells were regularly monitored for Mycoplasma infection by PCR. Phenotypic checks for interleukin 1 response ensured cell phenotype was maintained.
For the experiment reported in FIG. 8(b) the culture medium additionally contained 1% (v/v) penicillin streptomycin.
Tumour spheres were constructed as previously described (Greco, K. V. et al. High density micromass cultures of a human chondrocyte cell line: a reliable assay system to reveal the modulatory functions of pharmacological agents. Biochem Pharmacol 82, 1919-29 (2011), the contents of which are incorporated herein by reference). Briefly, 80% confluent monolayer cell cultures were released by trypsin-EDTA and resuspended in growth medium at a density of 4.1×10^4 cells/mL. Tumour spheres were achieved by pipetting 20 μL of cell suspension into individual wells of 24 well plates. Following a 3 hour intermolecular cohesion period 500 μL of growth medium was gently added. Cultures formed three dimensional spheres over the next 24 hours.
Growth media on chondrosarcoma tumour spheres was replaced with fresh media containing 0.1% DMSO (control 1), fresh media containing 0.2% DMSO (control 2), fresh media containing 50 μM small molecule 3-(N-(3,4-dichlorophenyl)carbamoyl)-5-norbornene-2-carboxylic acid, also named 3-{[(3,4-dichlorophenyl)amino]carbonyl}bicyclo[2.2.1]hept-5-ene-2-carboxylic acid, known as CADD522, fresh media containing 100 μM small molecule (CADD522). […] DAPI fluorescence was excited at 365 nm and emission collected between 420 and 470 nm. Nuclear DAPI staining was segmented with the number of the nuclei quantified using ImageJ. […] Statistical significance ([…]) was calculated using an unpaired t test with Prism 6.

RUNX2 = test: qPCR transcriptional profiling of transfected tumour spheres: RUNX2; assay type: cell-based, human; settings: 50 nM mimic, pooled RNA of 6 replicates, normalised to ACTB, compared to control tissue
Method: (§2) Once tumour spheres had formed, tRF mimics (RNA), tRF inhibitors (LNA), miRNA mimics (LNA) and miRNA inhibitors (LNA) (Exiqon) were transfected using Lipofectamine 3000 (Thermo Fisher Scientific) in reduced serum media (Thermo Fisher Scientific) for a final concentration of 50 nM consisting of equal parts of each mimic or inhibitor (sequences in Table 1 above). Confirmation of cell entry at 50 nM concentration was determined after performing the transfection with FAM labelled sequences. After 6 hours of incubation reduced serum media containing mimics or inhibitors was replaced with fresh growth media. Tumour spheres were subjected to histology, fluorescence microscopy and transcriptional profiling 48 hours later. Transfections were performed in triplicate in 3 independent experiments.
(§3) We used qPCR as previously described (Fricke, C., Green, D., Smith, D., Dalmay, T. & Chapman, T. MicroRNAs influence reproductive responses by females to male sex peptide in Drosophila melanogaster. Genetics 198, 1603-19 (2014), the contents of which are incorporated herein by reference). Due to a limited amount of RNA, qPCR was performed on pools of control tissue, low grade, intermediate grade and high grade tumours. We also extracted and pooled RNA from 6 replicates of tumour spheres treated with a tRF-Gly-TCC mimic. […]

YBX1 [2] = test: qPCR transcriptional profiling of transfected tumour spheres: YBX1; assay type: cell-based, human; settings: 50 nM mimic, pooled RNA of 6 replicates, normalised to ACTB
Method: as §2, §3

YBX1 [3] = biological target: YBX1 (Homo sapiens, UniProt P67809); settings: Goodarzi et al., Cell 161, 790-802 (2015); cited from earlier work
[4] = test system: chondrosarcoma tumour spheres (SW1353); test: Tumour sphere assay with LNA and RNA transfection, histology and fluorescence microscopy; assay type: cell-based, human; settings: 50 nM, 48 hours after transfection
Method: as §1
Tumour spheres were constructed as previously described (Greco, K. V. et al. High density micromass cultures of a human chondrocyte cell line: a reliable assay system to reveal the modulatory functions of pharmacological agents. Biochem Pharmacol 82, 1919-29 (2011), the contents of which are incorporated herein by reference). Briefly, 80% confluent monolayer cell cultures were released by trypsin-EDTA and resuspended in growth medium at a density of 4.1×10^4 cells/mL. Tumour spheres were achieved by pipetting 20 μL of cell suspension into individual wells of 24 well plates. […]
as §2, with “After 6 hours of incubation reduced serum media containing mimics or inhibitors was replaced with fresh growth media.” left out, “Transfections were performed in triplicate in 3 independent experiments.” left out
Tumour spheres were fixed in 3.7% formaldehyde and treated with 0.2% Triton-X 100. […] DAPI fluorescence was excited at 365 nm and emission collected between 420 and 470 nm. Texas Red-X Phalloidin fluorescence was excited at 558 nm and emission collected through a 615 nm LP filter. Nuclear DAPI staining was segmented with the number and size of the nuclei quantified using ImageJ.

SOX9 = test: qPCR transcriptional profiling of transfected tumour spheres: SOX9; assay type: cell-based, human; settings: 50 nM mimic, pooled RNA of 6 replicates, normalised to ACTB, compared to control tissue
Method: as §2, §3

HDAC4 = test: qPCR transcriptional profiling of transfected tumour spheres: HDAC4; assay type: cell-based, human; settings: 50 nM mimic, pooled RNA of 6 replicates, normalised to ACTB, compared to high grade tumours
Method: as §2, §3

PTHLH = test: qPCR transcriptional profiling of transfected tumour spheres: PTHLH; assay type: cell-based, human; settings: 50 nM mimic, pooled RNA of 6 replicates, normalised to ACTB
Method: as §2, §3

ANG = test: qPCR transcriptional profiling of transfected tumour spheres: ANG; assay type: cell-based, human; settings: 50 nM mimic, pooled RNA of 6 replicates, normalised to ACTB
Method: as §2, §3

IHH = test: qPCR transcriptional profiling of transfected tumour spheres: IHH; assay type: cell-based, human; settings: 50 nM mimic, pooled RNA of 6 replicates, normalised to ACTB
Method: as §2, §3

TP53 = test: qPCR transcriptional profiling of transfected tumour spheres: TP53; assay type: cell-based, human; settings: 50 nM mimic, pooled RNA of 6 replicates, normalised to ACTB, compared to control tissues
Method: as §2, §3

Chain of YBX1 (Homo sapiens, UniProt P67809) (P67809 whole entry): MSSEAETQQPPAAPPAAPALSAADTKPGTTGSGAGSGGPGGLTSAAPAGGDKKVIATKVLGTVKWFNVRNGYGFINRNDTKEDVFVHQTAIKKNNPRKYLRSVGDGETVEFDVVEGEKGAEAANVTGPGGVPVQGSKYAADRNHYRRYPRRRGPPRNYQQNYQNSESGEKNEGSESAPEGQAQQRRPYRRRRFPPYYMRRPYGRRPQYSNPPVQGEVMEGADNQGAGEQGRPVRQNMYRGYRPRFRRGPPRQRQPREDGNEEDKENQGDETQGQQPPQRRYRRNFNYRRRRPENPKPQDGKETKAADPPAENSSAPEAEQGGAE

Question: Which “cancer cell number in comparison with Control 1” value ([1]; 50 μM) does the source give for `O=C(O)C1C2C=CC(C2)C1C(=O)Nc1ccc(Cl)c(Cl)c1` (stereo not shown) [CADD522, 3-(N-(3,4-dichlorophenyl)carbamoyl)-5-norbornene-2-carboxylic acid] here?
Answer: about 70%

Question: What about the “cancer cell number in comparison with Control 1” value ([1]; 100 μM) of the same molecule?
Answer: about 30%

Question: What about the “cancer cell number compared to controls” value ([1]; two biological replicate controls, unpaired t test) of the same molecule?
Answer: significant reduction of cancer cell number

Question: For “TRF-Gly-TCC: endogenous tRNA derived fragment containing a SCUBYC sequence motif (GCGUUGGUGGUAUAGUGGUGAGCAUAGCUGCC; listed as RNA, chemistry not fully specified)”, which “RUNX2 mean relative expression” value (RUNX2) is on record?
Answer: reduces RUNX2 expression to control levels

Question: And the “YBX1 mean relative expression” value (YBX1 [2])?
Answer: increased expression

Question: And the “binding to YBX1” value (YBX1 [3])?
Answer: substantial binding

Question: What does the source list for “tRF-Gly-TCC mimic: RNA mimic, sequence GCGUUGGUGGUAUAGUGGUGAGCAUAGCUGCC (listed as RNA, chemistry not given here)”?
Answer: decrease in nuclear area compared to untreated tumour spheres [4]: more than two-fold decrease in nuclear area; phenotypic effect (nuclear and F-actin histology, inverted microscopy) [4]: low cancer cell number, shrunken nuclei and visible changes to morphology; nuclear area of tumour spheres ([4]; n=47 nuclei, untreated 488±12.4 μm^2 (n=230)): 215±16.8 μm^2; SOX9 mean relative expression (SOX9): remains at a reduced expression; HDAC4 mean relative expression (HDAC4): increases further; RUNX2 mean relative expression (RUNX2): reduced to the same level of expression as control tissue; PTHLP expression (PTHLH): lost; ANG mean relative expression (ANG): greatly reduced; IHH mean relative expression (IHH): greatly reduced; TP53 mean relative expression (TP53): reduces to be consistent with control tissues
